Measurements taken from patent publication US11865506B2, “Pyraclostrobin microcapsule based on sodium alginate and preparation method” (ANHUI AGRICULTURAL UNIVERSITY, priority 2022, dated 2024).
≈ marks a conversion by molar mass, not a printed value. Where two headings read alike, the source gives them in different places.

Tests used:
[1] = organic solvent; cited from earlier work
[2] = 25° C., cited from earlier work
[3] = Cold and hot storage stability; assay type: physicochemical; conditions: for Stability / decomposition rate on cold storage: stored at 4° C. and −20° C.
From the text: (§1) The cold storage stability, hot storage stability, and photostability are experimented respectively.

[4] = tested on: Fusarium pseudograminearum; assay: microbe, parasite or virus in culture; assay type: cell-based
Description: By mycelium growth rate method, the fungicidal activity of pyraclostrobin original drug and the prepared pyraclostrobin SA microcapsules against Fusarium pseudograminearum is determined, and the release rule of the microcapsules in the culture medium is determined.
Inclined experiment tube storage method: inoculate the strain of Fusarium pseudograminearum on a PDA plate for activation treatment, place the plate in a constant temperature incubator at 25° C. after sealing, and incubate for 3 days. Pick out the edge bacteria, transfer to a PDA slant experiment tube, and cultivate at a constant temperature at 25° C. until the colonies cover the surface of the slant, then put the experiment tube into a 4° C. refrigerator for storage until use. […]
Activate the Fusarium pseudograminearum on a drug-free PDA plate in advance, after culturing at 25° C. for 3 days, beat the fungus cake along the edge of the colony, pick the fungus cake with an inoculation needle every 0, 4, 8, 12, and 16 days and transfer it reversely to the center of the drug-containing medium; seal and store the culture dish, and place in a constant temperature incubator at 25° C. for cultivation. After each cultivation for 3 days, the diameter of the colony is measured by the cross method, and the average value is used to calculate the antibacterial rate as follows. […]

[5] = Photostability under ultraviolet light; assay type: physicochemical
From the text: as §1
Determination of the active ingredient residual concentration of the original drug and microcapsules under the same ultraviolet light conditions, the results are shown in Table 15.

Structure (SMILES) | Toxicity [1] | Solubility to original drug ([2]; in acetone) | Solubility to original drug ([2]; in ethanol) | Solubility to original drug ([2]; in ethyl acetate) | Solubility to original drug ([2]; in methanol) | Decomposition rate ([3]; storage at 25° C. for 30 days) | Decomposition rate ([3]; storage at 54° C. for 30 days) | Stability / decomposition rate on cold storage [3] | Stability / decomposition rate on cold storage ([3]; listed as pyraclostrobin original drug) | EC50 [4] | Photolysis rate constant ([5]; Ct = C0 × e^−kt) | Residual concentration of the active ingredient ([5]; final time of 60 minutes) | Photolysis half life ([5]; first-level kinetic equation) | half-life at 9.986 μg/mL ([5]; first-level kinetic equation, read-out: Photolysis half life)
CC(C)=O [Acetone] | Low |  |  |  |  |  |  |  |  |  |  |  |  | 
CCOC(C)=O [Ethyl acetate] | Low |  |  |  |  |  |  |  |  |  |  |  |  | 
COC(=O)N(OC)c1ccccc1COc1ccn(-c2ccc(Cl)cc2)n1 [Original drug, pyraclostrobin] |  | ≥65 g/100 mL | ≥10 g/100 mL | ≥65 g/100 mL | ≥10 g/100 mL | 2.2% | 40.25% | better stability | extremely low | 0.097 µg/mL (≈ 0.25 µM) | 0.03 | 1.384 µg/mL | 21.01 min | 21 min
